Reference: patent US7803757B2, “Peptides based on the sequence of human lactoferrin and their use” (PharmaSurgics in Sweden AB, priority 1998, dated 2010)
Converted amounts (≈) assume the structure as drawn. Bridge positions count the residues as written; N and C are the ends. Ends that are not written are not given here. Peptide text beside a SMILES is read from it.

Assays:
[1] = system: C. albicans (ATCC 64549); assay: microbe, parasite or virus in culture
Protocol: (§1) In the examples, the minimal microbicidal concentrations (MMC) and minimal inhibitory concentrations (MIC) were determined as follows, unless otherwise specified in the examples. Bacterial or fungal strains were cultured in BHI medium over night at 37° C. A volume of the culture was transferred to a new tube with BHI and incubated for two more hours. Thereafter the cells were spun down and the pellet was suspended in BHI medium diluted 1/100 (1% BHI). The concentration of bacterial or fungal cells was spectrophotometrically determined at 650 nm. The microbial concentrations were also determined by viable counts. Peptides serially diluted in 1% BHI by twofold or tenfold steps were added in triplicate to the wells of a microtiterplate (200 μl per well). The bacterial or fungal cell solutions were added in 10 μl volumes to give a final concentration of approximately 1-5×10^5 cells per ml in the well. The microplate was incubated at 37° C. in a humid chamber for two hours. Thereafter 5 μl was taken from each well and added as a drop onto a blood agar plate and incubated over night at 37° C. The microplate was incubated for another 20 hours at 37° C. and thereafter analysed spectrophotometrically at 650 nm in a microplate reader (Emax, Molecular Devices, USA). The concentration of peptide causing a 99% reduction of the inoculum after 2 hours of incubation was defined as the MMC99%. The MIC value was defined as the concentration giving no increase in the absorbance value above the background level after 20 hours of incubation.
In this example the fungicidal activity of one of the peptides according to the invention, the peptide with SEQ. ID. NO. 7, was compared to the conventional antifungal agents flucytosine and fluconazole, and also to human lactoferrin (hLF). The antifungal agents were tested on C. albicans (ATCC 64549) in a concentration of 2×10^5 cells/ml. The tests were performed in BHI medium diluted 1/100.

[2] = system: Candida albicans ATCC 64549; assay: fungicidal and growth inhibitory activity, Candida albicans ATCC 64549 (Example 8); type: cell-based; settings: for Concentration of agent for 100% killing: C. albicans ATCC 64549 1·10^5/ml, 2 hours 37° C., diluted BHI; for Concentration of agent for inhibition of growth: C. albicans ATCC 64549, spectrophotometrically after 20 hours
Protocol: Candida albicans ATCC 64549 (1·10^5/ml) was incubated in the presence of the peptides during 2 hours at 37° C. in diluted growth medium (BHI, twofold serial dilutions starting with 50 μg/ml). The fungicidal activity was measured by culturing 5 μl from each incubation well on Saboroud agar plates.
The inhibition of growth was measured spectrophotometrically after 20 hours of incubation.

[3] = system: reference strain of S. aureus; assay: bactericidal activity, reference strain of S. aureus (Example 19); type: cell-based; settings: reference strain of S. aureus 5.0×10^5 per ml, 2 hours at 37° C., lowest concentration tested 6.25 μg/ml
Protocol: In this example the bactericidal activity of three of the peptides according to the invention was studied in a test with a reference strain of S. aureus. A bacterial solution with a concentration of 5.0×10^5 S. aureus bacterial per ml was used. The concentration of each peptide needed to kill 99% of the bacteria (MMC99%) was determined after 2 hours of incubation at 37° C. The lowest concentration tested was 6.25 μg/ml.

[4] = system: C. albicans; assay: concentration for killing of 99% of C. albicans at different pH (Example 13, FIG. 2); type: cell-based; settings: for concentration needed for killing of 99% of C. albicans, compared with the capped cyclic peptides (in words): FIG. 2, different pH
Text: In this example the concentrations needed of three peptides according to the invention for killing of 99% of C. albicans at different pH was compared to a reference peptide. The peptides according to the invention were peptide 2 (linear), peptide 3 (cyclic), peptide 4 (linear), peptide 5 (cyclic) and peptide 7 (lactam bridged), all capped. The reference peptides used were an uncapped cyclic form and an uncapped linear form of a Morinaga peptide, Morinaga 24 and 25. The results are illustrated in FIG. 2.

[5] = system: E. coli O14; assay: bactericidal and growth inhibitory activity, E. coli O14 (Example 9); type: cell-based; settings: for Concentration of agent for 100% killing: E. coli O14, 2 hours; for Concentration of agent for inhibition of growth: E. coli O14, spectrophotometrically after 20 hours
Protocol: E. coli O14 was incubated as described above in the presence of the peptides during 2 hours. The bactericidal activity was measured in the same way as described above.
The inhibition of growth was measured spectrophotometrically after incubation during 20 hours.

[6] = system: C. albicans; assay: microbicidal activity MMC99%, C. albicans (Example 28); type: cell-based; settings: C. albicans (Table 24)
Protocol: as §1
(§2) In this example the microbicidal activity of eight of the peptides according to the invention was studied, and tested against E. coli O6K5 and C. albicans.
(§3) The concentration of each peptide needed to kill 99% of the microorganisms (MMC99%) was determined.

[7] = system: E. coli O6K5; assay: microbicidal activity MMC99%, E. coli O6K5 (Example 28); type: cell-based; settings: E. coli O6K5 (Table 24)
Protocol: as §1, §2, §3

[8] = system: E. coli O6K5; assay: urinary tract infection in mice, bacteria (CFU) in kidney (Example 6); type: in vivo; settings: Exp II, mouse strain C3H/Tif, 500 μg per mouse orally 30 minutes after instillation, 24 hours
Protocol: E. coli O6K5 was instilled into the urinary bladder of mice. 30 minutes after instillation the different agents specified in table 5 were administered orally in an amount of 500 μg per mouse and 24 hours after instillation the number of bacteria (CFU) present in bladder and in kidney was determined.
The control group consisted of 10 animals in experiment I and of 23 animals in experiment II. The animals in the control groups were given tap water instead of peptide or hLF.

[9] = system: LPS-induced IL-6 response in a monocytic cell line (THP-1); assay: inhibition of LPS-induced IL-6 response in THP-1 cells (Example 5); type: cell-based; settings: IL-6 response in THP-1 cells, agent added 30 minutes after LPS
Protocol: In this example an in vitro test was performed to study the anti-inflammatory activity of the peptides according to the invention. More precisely, the inhibitory effect of the peptides according to the invention on the LPS-induced IL-6 response in a monocytic cell line (THP-1) was studied and compared to the effect of human lactoferrin by use of the method described by I. Mattsby-Baltzer et al., Pediatr. Res. 40:257-262, 1996. The IL-6 response in the THP-1 cells was induced by addition of LPS. hLF, peptide 3 and peptide 4, respectively, were added 30 minutes after LPS.

[10] = system: E. coli O14; assay: bactericidal activity, incubation with E. coli O14 (Example 3, exp. I and III); type: cell-based
Protocol: Human lactoferrin (hLF), peptide 3, and peptide 4, respectively, were incubated with two different strains of E. coli, E. coli O14 (experiment I) and O6K5 (experiment II), in diluted growth medium ( 1/100 BHI—brain heart infusion) for 2 hours. The peptides were also incubated with E. coli O14 in 0.05 mM KCl (pH 7) without any growth medium (experiment III). Different concentrations of the peptides were tested.
After the incubation, samples were taken for bacterial plating. Serial dilutions of five- and fourfold steps were used in experiments I and II, respectively, and of twofold steps in experiment III.
The concentrations of the different peptides required for killing 100% (experiments I and II) or 90% (experiment III) of the bacteria are given in table 2.

[11] = system: Candida krusei; assay: fungicidal activity against Candida krusei strains (Example 4); type: cell-based; settings: Exp. I
Protocol: (§4) In this example the fungicidal activity of the peptides according to the invention was tested and compared to the fungicidal activity of human lactoferrin. Different concentrations of hLF, peptide 3 and peptide 4 were incubated with different strains of Candida albicans and Candida krusei during 1-2 hours at 37° C. in 0.05 mM KCl at pH 7.0 at two different occasions—experiment I and II, respectively. After incubation samples were taken for plating on Saboroud plates.

[12] = system: Candida albicans; assay: fungicidal activity against Candida albicans strains (Example 4); type: cell-based
Protocol: as §4

How did the MIC ([1]; ATCC64549) turn out when CSCC[C@H](NC(=O)[C@@H]1CC(=O)NCCCC[C@H](NC(=O)[C@H](Cc2ccccc2)NC(=O)[C@H](C)NC(=O)[C@H](CCCCN)NC(=O)[C@@H](NC(C)=O)[C@@H](C)O)C(=O)N[C@@H](Cc2c[nH]c3ccccc23)C(=O)N[C@@H](CCC(N)=O)C(=O)N[C@@H](CCCNC(=N)N)C(=O)N1)C(=O)N[C@@H](CCCNC(=N)N)C(=O)N[C@@H](CCCCN)C(=O)N[C@H](C(=O)N[C@@H](CCCNC(=N)N)C(N)=O)C(C)C [Peptide 7] (Ac-TKAFKWQRDMRKVR-NH2; lactam 5-9) was run?
Its MIC is 6.2 µg/mL (≈ 3.31 µM).

And the MMC99% ([1]; C. albicans ATCC 64549, 2×10^5 cells/ml, BHI diluted 1/100)?
The MMC99% was 6.2 µg/mL.

And the “Concentration of agent for 100% killing” value [2]?
The value was 3.1 µg/mL.

What about the “Concentration of agent for inhibition of growth” value [2] of the same compound?
Its value is 1.5 µg/mL.

What about the MMC99% [3] of the same compound?
The MMC99% was “≦6.25 μg/ml”.

And the “concentration needed for killing of 99% of C. albicans, ranking over all pH (in words)” value ([4]; FIG. 2, all different pH)?
Its value is “most effective peptide at all different pH”.

What about the “concentration needed for killing of 99% of C. albicans, compared with the capped cyclic peptides (in words)” value [4] of the same compound?
The value was “better effects than the capped cyclic peptides”.

And the “Concentration of agent for 100% killing” value [5]?
Its value is 12.5 µg/mL.

And the “Concentration of agent for inhibition of growth” value [5]?
Its value is “≦1.5 μg/ml”.

And the MMC99% [6]?
Its MMC99% is 5.

And the MMC99% [7]?
The MMC99% was greater than 20.

Which “Statistical comparison of treatment group with control group of the number of bacteria, CFU, present in kidney (p, Mann-Whitney)” value [8] does the source give for “Peptide 3: cyclic form of SEQ. ID. NO. 2, disulphide bridge between the two cysteines in positions 5 and 22 (Ac-EATKCFQWQRNMRKVRGPPVSCIKR; disulfide 5-22)” here?
Its value is “p = 0.0574”.

And the “% inhibition of LPS response” value [9]?
The value was 17%.

What about the “Concentration of agent for 100% killing” value [2] of the same compound?
Its value is 6.2 µg/mL.

And the “Concentration of agent for inhibition of growth” value [2]?
Its value is 6.2 µg/mL.

What about the “Concentration of agent for 100%/90% killing” value ([10]; Exp. I: 100% killing, E. coli O14, 1/100 BHI, 2 hours) of the same compound?
The value was 4.4 µg/mL.

And the “Concentration of agent for 100%/90% killing” value ([10]; Exp. III: 90% killing, E. coli O14, 0.05 mM KCl (pH 7) without growth medium)?
Its value is 12.5 µg/mL.

What about the “concentration needed for killing of 99% of C. albicans, compared with the capped cyclic peptides (in words)” value [4] of the same compound?
The value was “better effects than the capped cyclic peptides”.

And the “ratio hLF/pep. (concentration for 99% killing)” value ([11]; C. krusei CCUG 969)?
The value was 20.

And the “Concentration of agent for 99% killing” value ([11]; C. krusei CCUG 969, 0.05 mM KCl pH 7.0)?
The value was 1.25 µg/mL.

And the “ratio hLF/pep. (concentration for 99% killing)” value ([11]; C. krusei CCUG 35849)?
Its value is 21.

What about the “Concentration of agent for 99% killing” value ([11]; C. krusei CCUG 35849, 0.05 mM KCl pH 7.0) of the same compound?
The value was 0.6 µg/mL.

What about the “Concentration of agent for 100% killing” value [5] of the same compound?
The value was 12.5 µg/mL.

What about the “Concentration of agent for inhibition of growth” value [5] of the same compound?
The value was 3.1 µg/mL.

What about the “ratio hLF/pep. (concentration for 99% killing)” value ([12]; Exp. I, C. albicans ATCC 64549) of the same compound?
The value was greater than 83.

And the “Concentration of agent for 99% killing” value ([12]; Exp. I, C. albicans ATCC 64549, 0.05 mM KCl pH 7.0, 1-2 hours 37° C.)?
The value was 0.6 µg/mL.

And the “ratio hLF/pep. (concentration for 99% killing)” value ([12]; Exp. I, C. albicans CCUG 90028)?
The value was greater than 83.

What about the “Concentration of agent for 99% killing” value ([12]; Exp. I, C. albicans CCUG 90028, 0.05 mM KCl pH 7.0) of the same compound?
The value was 0.6 µg/mL.

And the “ratio hLF/pep. (concentration for 99% killing)” value ([12]; Exp. II, C. albicans ATCC 64549)?
The value was greater than 133.

What about the “Concentration of agent for 99% killing” value ([12]; Exp. II, C. albicans ATCC 64549, 0.05 mM KCl pH 7.0) of the same compound?
The value was 1.5 µg/mL.

And the “ratio hLF/pep. (concentration for 99% killing)” value ([12]; Exp. II, C. albicans CCUG 599)?
The value was greater than 133.

What about the “Concentration of agent for 99% killing” value ([12]; Exp. II, C. albicans CCUG 599, 0.05 mM KCl pH 7.0) of the same compound?
Its value is 1.5 µg/mL.

What about the “ratio hLF/pep. (concentration for 99% killing)” value ([12]; Exp. II, C. albicans CCUG 1759) of the same compound?
Its value is greater than 133.

What about the “Concentration of agent for 99% killing” value ([12]; Exp. II, C. albicans CCUG 1759, 0.05 mM KCl pH 7.0) of the same compound?
Its value is 1.5 µg/mL.

How did the MMC99% [3] turn out when “SEQ. ID. NO. 36: second embodiment, sequence from a position 13-25 to position 31 of human lactoferrin; sequence only in sequence listing (TKCFQWQRNMRKVR; ends and bridges not checked)” was run?
The MMC99% was “≦6.25 μg/ml”.

Which MMC99% [3] does the source give for “SEQ. ID. NO. 98: 14 amino acids, modified positions 18-31 of human lactoferrin; sequence only in sequence listing (TKKFQWQRNMRKVR)” here?
Its MMC99% is “≦6.25 μg/ml”.
